According to publication PMC4698308, “A new amino acid substitution (Ala-205-Phe) in acetolactate synthase (ALS) confers broad spectrum resistance to ALS-inhibiting herbicides” (Planta, 2015):
Where two headings read alike, the source gives them in different places.

Key:
[1] = target: T1, recombinant Arabidopsis thaliana ALS wild-type enzyme (WT—sensitive) (Arabidopsis thaliana, UniProt P17597); assay: biochemical
T1 construct: Protein constructs contained an 85 amino acid N-terminal deletion (chloroplast transit peptide); Hexa-histidine tag (N); made in house
Experimental: (§1) Effects of SNPs identified in sequencing analysis on ALS activity were studied using A. thaliana. The ALS gene from A. thaliana and derivatives thereof were de novo synthesized and subcloned into pET-24d(+) (Life Technologies. Grand Island, NY, USA) using NcoI and XhoI restriction sites. Protein constructs contained an 85 amino acid N-terminal deletion (chloroplast transit peptide) and the addition of an N-terminal Hexa-histidine tag to facilitate purification.
(§2) Lysis was performed by at least two passes through a fluidizer, followed by centrifuging at 80000×g for 30 min at 4 °C. […] Fractions containing ALS protein were pooled and stored at −20 °C.
(§3) Inhibitors, purchased from Sigma as Pestanal standards (Sigma-Aldrich, Deisenhofen, Germany), were dissolved in DMSO and added to the reaction mixture. Inhibitors evaluated included imidazolinone, sulfonylurea, triazolopyrimidines, sulfonylamino-carbonyl- triazolinones, and pyrimidinyl (thio) benzoate herbicides. The reaction mixture was incubated at 30 °C for 60 min and stopped with 70 µl of H2SO4 (3 M). The reaction was then heated to 56 °C for 15 min to convert acetolactate into acetoin. […] For each inhibitor, resistance factors were calculated by dividing IC50 values for mutant and sensitive ALS.

[2] = system: recombinant Arabidopsis thaliana ALS variant W574L; type: biochemical; conditions: IC50 mutant divided by IC50 sensitive ALS; max inhibitor concentration 1.00 × 10^−04 M
Experimental: as §1, §2, §3

[3] = system: recombinant Arabidopsis thaliana ALS variant A205V; type: biochemical; conditions: IC50 mutant divided by IC50 sensitive ALS; max inhibitor concentration 1.00 × 10^−04 M
Experimental: as §1, §2, §3

[4] = system: annual bluegrass (Poa annua L.); assay: Whole plant non-target site resistance experiment with P450 inhibitors malathion or PBO (control 21 days after treatment); type: in vivo; conditions: for Annual bluegrass control S: susceptible (S)
Experimental: Additional experiments were conducted during March–April 2015 to determine if non-target site based mechanisms conferred resistance to ALS inhibitors in our annual bluegrass population, POAAN-R3. Plants (RP6, RP7, and S) were cultured in plastic conical containers as previously described and allowed to acclimate to the glasshouse for 18 days prior to initiating two experiments.
In the first experiment, resistant (RP6, RP7) and susceptible (S) plants were treated with foramsulfuron at 29 g ha^−1, trifloxysulfuron (Monument. Syngenta Professional Products. Greensboro, NC, USA) at 27.8 g ha^−1, imazaquin (Image. BASF Corporation. Research Triangle Park, NC) at 27.5 g ha^−1, or bispyribac-sodium (Velocity. Valent USA Corporation. Walnut Creek, CA, USA) at 70 g ha^−1. All herbicides were applied alone or in combination with either malathion (Spectrum Group. St. Louis, MO, USA) at 1000 g ha^−1 or piperonyl butoxide (Sigma Aldrich. St. Louis, MO, USA) at 2100 g ha^−1. Malathion and piperonyl butoxide (PBO) inhibit cytochrome P450 monooxygenases involved in metabolism of ALS inhibiting herbicides and are commonly used at the application rates tested herein to evaluate non-target site based resistance mechanisms in weeds (Burnet et al. [1994]; Christopher et al. [1992]; Yu and Powles [2014b]; Rao et al. [1995]). All herbicides were mixed in water carrier and included non-ionic surfactant at 0.25 % v/v. Malathion and PBO were mixed with methanol and de-ionized water (50:50) and applied 60 min prior to herbicide application using a previously described enclosed spray chamber on 13 February 2015.
Annual bluegrass control was visually assessed on a 0 (i.e., no control) to 100 % (i.e., complete kill) scale relative to the non-treated 21 days after treatment. After all control data had been collected, aboveground biomass was harvested from each plastic conical container at the soil line using scissors, dried at 100 °C, and weighed. Treatments were arranged as a 3 × 5 × 3 factorial with three plant selections (RP6, RP7, S), five herbicides (foramsulfuron, trifloxysulfuron, imazaquin, bispyribac-sodium, non-treated) and three P450 inhibitor treatments (malathion, PBO, non-treated) in a completely randomized design with four replications and repeated in separate glasshouses during February 2015.

[5] = system: annual bluegrass (Poa annua L.); assay: Whole plant non-target site resistance experiment, foramsulfuron vs sulfometuron (control and plant height 28 days after treatment); type: in vivo
Experimental: A second experiment was conducted to determine if non-target mechanisms could confer resistance to ALS inhibiting herbicides in our annual bluegrass population, POAAN-R3. ALS-resistant (RP1–RP8) and susceptible (S) plants were cultured in plastic conical containers under previously described glasshouse conditions for 28 days before being treated with foramsulfuron (29 g ha^−1) or sulfometuron-methyl (Oust XP; Dupont Professional Products. Wilmington, DE, USA) at 105 g ai ha^−1. Sulfometuron-methyl is an ALS inhibiting herbicide not metabolized by cytochrome P450 monooxygenases; therefore, it can be used to discern if weed populations survive ALS inhibiting herbicide treatment via target- or non-target site based mechanisms (Christopher et al. [1992]). Per label recommendations, sulfometuron-methyl included non-ionic surfactant at 0.25 % v/v. Treatments were mixed in water carrier applied in an enclosed spray chamber, as previously described, on 13 March 2015.
Annual bluegrass control was visually assessed on a 0 (i.e., no control) to 100 % (i.e., complete kill) scale relative to the non-treated 28 days after treatment. After all control data had been collected, plant height data were collected using a ruler placed at the soil surface of each plastic conical container and recording the distance to the tip of the bud leaf. Treatments were arranged as a 9 × 3 factorial with nine plant selections (RP1–RP8, S) and three herbicides (foramsulfuron, sulfometuron-methyl, non-treated) in a completely randomized design with four replications and repeated in separate glasshouses during March 2015.

T1 sequence (P17597 86-670): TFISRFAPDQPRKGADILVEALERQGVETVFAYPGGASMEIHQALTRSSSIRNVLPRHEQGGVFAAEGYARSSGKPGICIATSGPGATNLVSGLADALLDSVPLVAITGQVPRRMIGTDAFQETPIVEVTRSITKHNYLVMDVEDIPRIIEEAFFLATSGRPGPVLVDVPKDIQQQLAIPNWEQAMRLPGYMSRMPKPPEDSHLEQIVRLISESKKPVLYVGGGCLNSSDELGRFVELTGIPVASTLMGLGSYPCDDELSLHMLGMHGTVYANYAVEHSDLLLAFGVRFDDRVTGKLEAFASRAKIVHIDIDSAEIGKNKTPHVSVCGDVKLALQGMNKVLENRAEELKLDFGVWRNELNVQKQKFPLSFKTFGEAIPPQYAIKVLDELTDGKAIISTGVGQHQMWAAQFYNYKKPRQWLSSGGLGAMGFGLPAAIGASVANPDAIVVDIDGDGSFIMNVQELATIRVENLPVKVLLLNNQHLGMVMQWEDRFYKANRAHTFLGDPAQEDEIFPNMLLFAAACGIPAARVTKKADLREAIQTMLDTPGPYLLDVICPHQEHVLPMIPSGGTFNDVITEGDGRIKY

Structure (SMILES): O=C(Nc1nc(OC(F)F)cc(OC(F)F)n1)NS(=O)(=O)c1ccccc1C(=O)O [Primisulfuron]
- IC50 [1]: 3.14 nM
- Resistance factor W574L [2]: 5728
- Resistance factor A205V [3]: 429

Structure (SMILES): COc1nc(C)nc(NC(=O)NS(=O)(=O)c2ccccc2CCC(F)(F)F)n1 [Prosulfuron]
- IC50 [1]: 2.88 nM
- Resistance factor W574L [2]: 3524
- Resistance factor A205V [3]: 88

Structure (SMILES): COc1cc(OC)nc(Oc2cccc(Oc3nc(OC)cc(OC)n3)c2C(=O)O)n1 [Bispyribac-sodium]
- Annual bluegrass control RP6 ([4]; RP6, herbicide alone, foramsulfuron 29, trifloxysulfuron 27.8, imazaquin 27.5, bispyribac-sodium 70 g ha^−1): 28%
- Annual bluegrass control RP6 ([4]; RP6, herbicide with PBO 2100 g ha^−1 applied 60 min prior): 20%
- Annual bluegrass control RP6 ([4]; RP6, herbicide with malathion 1000 g ha^−1 applied 60 min prior): 32%
- Annual bluegrass control RP7 ([4]; RP7, herbicide alone, foramsulfuron 29, trifloxysulfuron 27.8, imazaquin 27.5, bispyribac-sodium 70 g ha^−1): 7%
- Annual bluegrass control RP7 ([4]; RP7, herbicide with PBO 2100 g ha^−1 applied 60 min prior): 14%
- Annual bluegrass control RP7 ([4]; RP7, herbicide with malathion 1000 g ha^−1 applied 60 min prior): 47%
- Annual bluegrass control S ([4]; herbicide alone, foramsulfuron 29, trifloxysulfuron 27.8, imazaquin 27.5, bispyribac-sodium 70 g ha^−1): 90%
- Annual bluegrass control S ([4]; herbicide with PBO 2100 g ha^−1 applied 60 min prior): 86%
- Annual bluegrass control S ([4]; herbicide with malathion 1000 g ha^−1 applied 60 min prior): 92%

Structure (SMILES): CC(C)C1(C)N=C(c2ncccc2C(=O)O)NC1=O (stereo not drawn) [Imazapyr]
- IC50 [1]: 6060 nM
- Resistance factor W574L [2]: 16
- Resistance factor A205V [3]: 16

Structure (SMILES): COc1cc(OC)n2nc(NS(=O)(=O)c3c(C(F)(F)F)ccnc3OC)nc2n1 [Pyroxulam]
- IC50 ([1]; concentration for 50 % inhibition of WT enzyme, max inhibitor concentration 1.00 × 10^−04 M, read-out: WT sensitivity [IC50]): 4.12 nM
- Resistance factor W574L [2]: 24,268
- Resistance factor A205V [3]: 162

Structure (SMILES): COC(=O)c1ccccc1S(=O)(=O)NC(=O)Nc1nc(C)cc(C)n1 [Sulfometuron, Sulfometuron-methyl]
- Annual bluegrass control RP1 ([5]; RP1, 28 days after treatment, minimum of two tillers, foramsulfuron 29, sulfometuron 105 g ha^−1): 24%
- Annual bluegrass height RP1 ([5]; RP1, plant height 28 days after treatment, foramsulfuron 29, sulfometuron 105 g ha^-1, non-treated 118 mm): 76 mm
- Annual bluegrass control RP2 ([5]; RP2, 28 days after treatment, minimum of two tillers, foramsulfuron 29, sulfometuron 105 g ha^−1): 29%
- Annual bluegrass height RP2 ([5]; RP2, plant height 28 days after treatment, foramsulfuron 29, sulfometuron 105 g ha^-1, non-treated 129 mm): 65 mm
- Annual bluegrass control RP3 ([5]; RP3, 28 days after treatment, minimum of two tillers, foramsulfuron 29, sulfometuron 105 g ha^−1): 21%
- Annual bluegrass height RP3 ([5]; RP3, plant height 28 days after treatment, foramsulfuron 29, sulfometuron 105 g ha^-1, non-treated 173 mm): 78 mm
- Annual bluegrass control RP4 ([5]; RP4, 28 days after treatment, minimum of two tillers, foramsulfuron 29, sulfometuron 105 g ha^−1): 21%
- Annual bluegrass height RP4 ([5]; RP4, plant height 28 days after treatment, foramsulfuron 29, sulfometuron 105 g ha^-1, non-treated 140 mm): 71 mm
- Annual bluegrass control RP5 ([5]; RP5, 28 days after treatment, minimum of two tillers, foramsulfuron 29, sulfometuron 105 g ha^−1): 26%
- Annual bluegrass height RP5 ([5]; RP5, plant height 28 days after treatment, foramsulfuron 29, sulfometuron 105 g ha^-1, non-treated 114 mm): 68 mm
- Annual bluegrass control RP6 ([5]; RP6, 28 days after treatment, minimum of two tillers, foramsulfuron 29, sulfometuron 105 g ha^−1): 76%
- Annual bluegrass height RP6 ([5]; RP6, plant height 28 days after treatment, foramsulfuron 29, sulfometuron 105 g ha^-1, non-treated 106 mm): 56 mm
- Annual bluegrass control RP7 ([5]; RP7, 28 days after treatment, minimum of two tillers, foramsulfuron 29, sulfometuron 105 g ha^−1): 28%
- Annual bluegrass height RP7 ([5]; RP7, plant height 28 days after treatment, foramsulfuron 29, sulfometuron 105 g ha^-1, non-treated 125 mm): 69 mm
- Annual bluegrass control RP8 ([5]; RP8, 28 days after treatment, minimum of two tillers, foramsulfuron 29, sulfometuron 105 g ha^−1): 21%
- Annual bluegrass height RP8 ([5]; RP8, plant height 28 days after treatment, foramsulfuron 29, sulfometuron 105 g ha^-1, non-treated 132 mm): 67 mm
- Annual bluegrass control S ([5]; susceptible (S), 28 days after treatment, minimum of two tillers, foramsulfuron 29, sulfometuron 105 g ha^−1): 99%
- Annual bluegrass height S ([5]; susceptible (S), plant height 28 days after treatment, foramsulfuron 29, sulfometuron 105 g ha^-1, non-treated 111 mm): 9 mm
